# According to ChEMBL document CHEMBL1201862, “PubChem BioAssay data set” (2004):
# Calls of active or inactive are those of the source. Cut-off read from the data, not from the text of the source, for most assays here: actives have a measured EC50 and inactives only a lower limit.
# How the values were obtained:
# [1] = target: T1, Heat shock factor protein 1 (Mus musculus, UniProt P38532); experiment: HSF1 potentiators in luciferase reporter cells, confirmation, cell-based, NIH3T3, luminescence, dose retest (AID 435004); assay type: functional;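 note: stress induced by proteasome inhibitor MG132 added 30 min after compound; luciferase reporter driven by HSF1 response element in NIH3T3 cells; actives raise luminescence as potentiators of the MG132 stress response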
# T1 sequence (P38532 whole entry): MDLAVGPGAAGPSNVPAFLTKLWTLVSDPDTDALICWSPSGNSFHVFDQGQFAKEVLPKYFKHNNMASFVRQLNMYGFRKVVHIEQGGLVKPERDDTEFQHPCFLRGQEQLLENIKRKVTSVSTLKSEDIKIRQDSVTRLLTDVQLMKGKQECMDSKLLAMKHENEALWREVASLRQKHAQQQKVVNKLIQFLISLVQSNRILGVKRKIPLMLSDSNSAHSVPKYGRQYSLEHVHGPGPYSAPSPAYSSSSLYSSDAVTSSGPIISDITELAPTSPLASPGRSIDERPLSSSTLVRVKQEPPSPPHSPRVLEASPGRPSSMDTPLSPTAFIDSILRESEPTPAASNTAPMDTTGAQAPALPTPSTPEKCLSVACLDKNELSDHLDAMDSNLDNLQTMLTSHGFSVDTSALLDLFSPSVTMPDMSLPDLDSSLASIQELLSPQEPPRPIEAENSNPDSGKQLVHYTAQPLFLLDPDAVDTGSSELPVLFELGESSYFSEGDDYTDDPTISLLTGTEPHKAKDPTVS
# [2] = target: T2, Calpain-2 catalytic subunit (Sus scrofa, UniProt P43367); experiment: pig calpain II inhibitor potency, dose response, biochemical, fluorogenic peptide substrate (AID 1420); assay type: functional
# T2 sequence (P43367 whole entry): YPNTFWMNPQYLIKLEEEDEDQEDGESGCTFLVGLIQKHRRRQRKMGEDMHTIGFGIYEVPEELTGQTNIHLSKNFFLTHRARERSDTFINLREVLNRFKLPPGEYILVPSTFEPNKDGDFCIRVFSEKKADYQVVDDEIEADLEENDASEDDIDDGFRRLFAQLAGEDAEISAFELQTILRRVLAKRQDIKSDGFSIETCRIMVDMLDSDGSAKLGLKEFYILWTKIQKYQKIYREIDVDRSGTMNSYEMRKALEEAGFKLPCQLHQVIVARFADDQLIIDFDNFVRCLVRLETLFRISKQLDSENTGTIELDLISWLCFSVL
# [3] = Luminescence Cell-Based Dose Confirmation HTS to Identify Activators of 5'UTR Stem-Loop Driven Alpha-Synuclein mRNA Translation in H4 Neuroglioblastoma Cells. [Related pubchem assays: 1829 (Project Summary), 1814 (Primary HTS)]; assay type: functional
# H4 = experiment: Luminescence Cell-Based Dose Response HTS to Identify Activators of 5'UTR Stem-Loop Driven Prion Protein mRNA Translation in H4 Neuroglioblastoma Cells. [Related pubchem assays: 1829 (Project Summary), 1814 (Primary HTS)]; assay type: functional; conditions: Homo sapiens
# [4] = Luminescence Cell-Based Dose Response HTS to Identify Activators of Luciferase Translation or Activity in H4 […] Cells. [Related pubchem assays: 1829 (Project Summary), 1814 (Primary HTS)]; assay type: functional
# [5] = target: Luciferin 4-monooxygenase (Photinus pyralis, UniProt P08659); experiment: firefly luciferase enzyme inhibitors, dose response, biochemical, luminescence (AID 1891)
# [6] = Luminescence Cell-Based Dose Confirmation HTS to Identify Inhibitors of Platelet Dense Granule Release. [Related pubchem assays: 1663 (Primary HTS), 1678 (Summary of Project)]; assay type: functional
# H9c2 = experiment: cells; assay type: functional, cell-based; conditions: Rattus norvegicus, H9c2, Myocardium;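 note: confirmatory concentration-response retest of ultra-high-throughput screening hits for modulation of myocardial damage; cell death induced by hydrogen peroxide oxidative stress; compound pretreatment for 60 min then peroxide exposure for 2 h; potency is for protecting the cells against peroxide damage rather than for killing them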
# [7] = HEp-2 cell cytotoxicity, dose response, cytotoxicity control for RSV inhibitor project, HTS (AID 2410); assay type: functional; conditions: human respiratory syncytial virus
# [8] = inhibitors of intracellular T. cruzi replication, confirmation, NIH3T3 host cells, beta-gal luminescence (AID 2044); assay type: functional, cell-based;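 note: intracellular parasites grown in NIH/3T3 mouse fibroblasts as host cells; luminescent beta-galactosidase reporter signal from transgenic T. cruzi replicating inside host cells; inhibitors lower the luminescence signal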
# [9] = cytotoxicity toward NIH3T3 fibroblasts, dose response, counter-screen, cell-based, ATP luminescence, mouse fibroblasts (AID 2010); assay type: functional;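 note: cells exposed to compound for about 90 hours before reading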
# [10] = target: T3, Rac GTPase-activating protein 1 (Homo sapiens, UniProt Q9H0H5); experiment: MgcRacGAP GTPase-activating activity inhibitors, confirmation, biochemical, ADP Hunter fluorescence, primary and confirmatory (AID 624330); assay type: functional
# T3 sequence (Q9H0H5 whole entry): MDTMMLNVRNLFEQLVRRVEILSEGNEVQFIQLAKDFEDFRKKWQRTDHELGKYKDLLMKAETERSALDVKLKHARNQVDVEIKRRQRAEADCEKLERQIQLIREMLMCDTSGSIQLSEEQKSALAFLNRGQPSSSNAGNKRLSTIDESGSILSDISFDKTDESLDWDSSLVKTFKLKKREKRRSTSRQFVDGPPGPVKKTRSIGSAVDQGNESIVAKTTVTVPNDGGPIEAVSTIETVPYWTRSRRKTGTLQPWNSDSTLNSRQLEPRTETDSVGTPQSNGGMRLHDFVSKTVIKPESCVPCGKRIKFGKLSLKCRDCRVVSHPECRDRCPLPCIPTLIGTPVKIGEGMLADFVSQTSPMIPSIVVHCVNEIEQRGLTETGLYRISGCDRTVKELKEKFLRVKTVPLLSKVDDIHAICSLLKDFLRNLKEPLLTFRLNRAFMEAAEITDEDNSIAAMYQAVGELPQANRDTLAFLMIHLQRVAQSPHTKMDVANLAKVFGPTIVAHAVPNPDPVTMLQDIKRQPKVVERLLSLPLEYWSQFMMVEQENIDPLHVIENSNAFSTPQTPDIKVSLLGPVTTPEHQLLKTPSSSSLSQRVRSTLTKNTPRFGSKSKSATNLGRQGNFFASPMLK
# Chain of Luciferin 4-monooxygenase (P08659 whole entry): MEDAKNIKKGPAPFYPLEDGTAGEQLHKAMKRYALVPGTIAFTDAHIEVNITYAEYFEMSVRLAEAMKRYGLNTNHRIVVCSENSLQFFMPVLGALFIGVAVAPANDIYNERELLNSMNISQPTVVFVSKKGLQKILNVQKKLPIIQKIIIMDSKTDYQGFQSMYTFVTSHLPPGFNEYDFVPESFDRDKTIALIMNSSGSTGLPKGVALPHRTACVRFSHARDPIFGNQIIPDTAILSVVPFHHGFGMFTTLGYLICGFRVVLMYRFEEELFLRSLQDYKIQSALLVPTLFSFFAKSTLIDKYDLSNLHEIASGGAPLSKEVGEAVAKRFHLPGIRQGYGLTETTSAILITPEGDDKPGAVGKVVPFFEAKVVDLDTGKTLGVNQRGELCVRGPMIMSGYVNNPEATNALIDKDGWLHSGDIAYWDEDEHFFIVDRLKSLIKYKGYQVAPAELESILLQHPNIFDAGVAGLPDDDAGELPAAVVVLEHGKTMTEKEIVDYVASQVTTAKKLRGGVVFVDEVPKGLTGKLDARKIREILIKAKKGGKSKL
compound,measurement,setting,value
CCOc1cc(/C=C2/SC(=S)N(CC3CCCO3)C2=O)ccc1O (centres undefined),EC50,[1],> 260 µM (inactive)
CCNc1ccc(S(=O)(=O)N(C)C)cc1NCC(=O)Nc1ccccc1Br,EC50,[1],> 260 µM (inactive)
O=C(NNC(=O)c1cc(OCC(F)(F)F)ccc1OCC(F)(F)F)c1ccc(Cl)c(Cl)c1,IC50,[2],6.1 µM (not active)
N#Cc1cnc2sc3ccccc3n2c1=N,EC50,[3],15.9 µM (active)
same,EC50,H4,11.7 µM (active)
same,EC50,[4],10.6 µM (active)
CCN(C(=O)COC(=O)c1cc(-c2cccs2)nc2ccccc12)C1CCS(=O)(=O)C1 (centres undefined),EC50,[5],> 112 µM (not active)
same,EC50,[6],> 112 µM (not active)
COc1ccc(N2CCN(C(=O)Cn3cnc4c(cnn4-c4ccccc4)c3=O)CC2)cc1,IC50,[2],4.18 µM (not active)
COC(=O)C(Cc1ccc(O)cc1)NC(=O)C12CC3CC(CC(C3)C1)C2 (centres undefined),EC50,[5],> 112 µM (not active)
same,EC50,[6],17.2 µM (active)
CCn1nc(C(=O)OCC(=O)c2c[nH]c3ccccc23)c2ccccc2c1=O,IC50,[2],3.99 µM (not active)
same,IC50,H9c2,> 79 µM (inactive)
CCc1nc2c(sc3nc4c(cc32)COC(C)(C)C4)c(=O)n1Cc1ccco1,EC50,[1],> 260 µM (inactive)
CC(C)(C)c1ccc(C(=O)NCc2ccco2)cc1,EC50,[3],20.9 µM (active)
same,EC50,H4,13.7 µM (active)
same,EC50,[4],31 µM (active)
O=C(CSc1n[nH]c(-c2ccccc2)n1)c1ccccc1,EC50,[3],15.3 µM (active)
same,EC50,H4,6.22 µM (active)
same,EC50,[4],5.83 µM (active)
C[C@H](NC(=O)c1[nH]cnc1C(=O)N[C@@H](Cc1ccccc1)C(=O)OCc1ccccc1)C(=O)OC(C)(C)C,CC50,[7],24.8 µM (active)
Cc1ccc(NC(=O)CNC(=O)c2ccccc2F)cc1Cl,IC50,[2],37.6 µM (not active)
COc1ccc(-c2cc3ccc(OCC(C)=O)cc3oc2=O)cc1,EC50,[1],> 260 µM (inactive)
CCOc1cc(NC(=O)C2CC2)c(OCC)cc1NC(=O)c1ccccn1,IC50,H9c2,12.6 µM (active)
c1csc(-c2nn3c(Cn4nnc5ccccc54)nnc3s2)c1,EC50,[5],> 112 µM (not active)
same,EC50,[6],> 112 µM (not active)
Cc1cc(NC(=O)COc2nnc(-c3ccccc3)c3ccccc23)no1,IC50,H9c2,32.3 µM (inactive)
O=c1c(Cl)cc(Cl)nn1-c1ccccc1,EC50,[1],24.7 µM (active)
Cc1ccc(S(=O)(=O)N2CCC(=O)N(C(COCc3cccc(C)c3)Cc3ccccc3)CC2)cc1 (centres undefined),CC50,[7],28.7 µM (active)
CCCCc1c(O)nc(SCC(=O)N2CCOCC2)nc1O,EC50,[5],> 112 µM (not active)
same,EC50,[6],> 112 µM (not active)
COc1ccccc1[C@@H]1C(c2cccc(Cl)c2)=NN(c2ccccc2)[C@H]1C(=O)N1CCOC1=O,CC50,[7],33.2 µM (active)
Cn1c2ccc(F)cc2c2nnc(NN)nc21,IC50,H9c2,> 79 µM (inactive)
CCOc1ccc(N(CC(=O)Nc2cccc(OC)c2)S(=O)(=O)c2c(C)noc2C)cc1,IC50,[2],5.86 µM (not active)
Cc1cccc(NC(=O)CSc2cc(C)c(C#N)c3nc4ccccc4n23)c1,EC50,[1],6.87 µM (active)
CCOc1ccc(C(C(=O)NC2CCCC2)N(C(=O)c2snc(C(N)=O)c2N)c2cccc(O)c2)cc1 (centres undefined),IC50,H9c2,> 79 µM (inactive)
N#CCCSc1ccccc1NC(=O)c1cc(=O)c2ccccc2o1,IC50,H9c2,19.3 µM (active)
CC(C)(C)N(NS(=O)(=O)c1ccc(F)cc1)c1ccccc1,EC50,[1],> 260 µM (inactive)
COc1cccc(NC(=O)N(C2CCCCC2)C(C)c2cccs2)c1 (centres undefined),IC50,[2],8.59 µM (not active)
CN1CCN(c2ccc(NC(=O)COc3ccccc3)cc2Cl)CC1,EC50,[3],0.214 µM (active)
same,EC50,H4,66.9 µM (active)
same,EC50,[4],0.229 µM (active)
O=C1CN(c2ccccc2)C(=S)N1C(=O)c1ccccc1,EC50,[3],57.7 µM (active)
same,EC50,H4,15.7 µM (inconclusive)
same,EC50,[4],106 µM (active)
O=C1[C@@H]2Cc3c([nH]c4ccccc34)C(c3ccc([N+](=O)[O-])cc3)N2C(=O)CN1C1CC1 (some centres undefined),EC50,[1],> 260 µM (inactive)
CC(Cc1ccccc1)/[N+]([O-])=C\c1ccc(C(F)(F)F)cc1 (centres undefined),EC50,[3],1.2 µM (active)
same,EC50,H4,4.53 µM (active)
same,EC50,[4],6.29 µM (active)
CN1CCN(CCCNC(=O)c2cc3c(=O)n(C)c4ccccc4c3s2)CC1,EC50,[3],> 120 µM (not active)
same,EC50,H4,> 120 µM (not active)
same,EC50,[4],11.7 µM (active)
COc1cccc(OCCNC(=O)c2cccc(OC)c2)c1,EC50,[5],> 112 µM (not active)
same,EC50,[6],> 112 µM (not active)
Cc1ccc(Nc2c([N+](=O)[O-])nn(-c3ccc4c(c3)OCCO4)[n+]2[O-])c(Cl)c1,EC50,[8],199 nM (active)
same,IC50,[2],23.1 µM (not active)
same,EC50,[9],> 60 µM (not active)
O=c1c2c(-c3cccs3)csc2ncn1-n1cccc1,IC50,[2],> 50 µM (not active)
CC1CCN(C(=S)SCc2nc(N)nc(Nc3ccccc3)n2)CC1,CC50,[7],13.3 µM (active)
CC(C)(C)n1nc2c(c1NC(=O)c1cc([N+](=O)[O-])ccc1Cl)CS(=O)(=O)C2,EC50,[3],17.8 µM (active)
same,EC50,H4,> 120 µM (not active)
same,EC50,[4],18.9 µM (active)
CC(=O)Nc1ccc(NC(=O)Cn2nc([N+](=O)[O-])c(Br)c2C)cc1,IC50,[2],11.6 µM (not active)
Cc1ccc(NC(=O)c2cc(S(=O)(=O)N3CCOCC3)cn2C)c(C)c1,EC50,[5],> 112 µM (not active)
same,EC50,[6],> 112 µM (not active)
CCn1c(SCC(=O)N2CCCC(C)C2)nnc1-c1ccco1 (centres undefined),EC50,[5],> 112 µM (not active)
same,EC50,[6],> 112 µM (not active)
N=C(NOC(=O)c1cc(Cl)ccc1Cl)c1ccncc1,EC50,[3],9.04 µM (active)
same,EC50,H4,28.1 µM (active)
same,EC50,[4],1.87 µM (active)
COc1ccc(CCNC(=O)C2CCCN(Cc3nc(-c4ccccc4C)oc3C)C2)cc1OC (centres undefined),EC50,[1],> 260 µM (inactive)
O=C(CCc1nc(O)c2ccccc2n1)Nc1ccc(Cl)c(Cl)c1,IC50,H9c2,15.4 µM (active)
Cc1ccc(CN(C)C(=O)COC(=O)CSc2ccc(C(N)=O)cc2[N+](=O)[O-])cc1,IC50,H9c2,> 79 µM (inactive)
Cc1cccc(-c2cccc(NC(=O)C3CCCN(C(=O)c4cccnc4)C3)c2)c1 (centres undefined),EC50,[1],> 260 µM (inactive)
O=CNc1cc(-c2ccc(C(=O)NC3CC3)cc2)cn2c(-c3ccccc3)cnc12,IC50,H9c2,> 79 µM (inactive)
COc1ccc(OCC(=O)NCc2nnc(O)c3ccccc23)cc1,IC50,H9c2,> 79 µM (inactive)
Oc1ccc(Br)cc1/C=N/c1ccc2c3c(cccc13)CC2,IC50,[10],33.5 µM (active)
same,IC50,H9c2,> 79 µM (inactive)
COc1cc2c(c(OC)c1CC=C(C)C)C[C@H](c1ccc(O)cc1O)CO2 [GLYASPERIN D],CC50,[7],15.3 µM (active)
